These results are taken from publication PMC8193794 (Biochemistry, 2020).

Where two headings read alike, the source gives them in different places.

The test system of data set [1] is Aβ42. Kind of data set: Thioflavin T. It is filed as biochemical. To be noted: 37 °C.
The subject of data set [2] is Aβ40-HN interactions. The conditions noted are these: cited from earlier work.
The target in data set [3] is Amyloid-β (Aβ) of the conditioned media of A549 and H1299 cells (human (endogenous in A549 and H1299)). Kind of data set: ELISA. Background: An ELISA detects its analyte on a solid surface through an enzyme-linked reagent.
For data set [4] the target is unchanged. Kind of data set: ELISA. This is another data set of the same source.
Data set [5] concerns HN-Aβ (Aβ40 or Aβ42) complex. Kind of data set: ELISA, HN-Aβ binding with increasing AChE, without or with IGFBP-3.
Data set [6] deals with Aβ40. Kind of data set: Thioflavin T. To be noted: 37 °C. It is filed as biochemical.
Data set [7] has as its system amyloid complexes in A549 conditioned medium. It is filed as binding, human.
Data set [8] concerns 6E10-bound Aβ complex from A549 conditioned medium. Kind of data set: 6E10 capture ELISA of A549 conditioned medium with exogenous IGFBP-3. It is filed as binding, human.
Data set [9] has as its system 6E10-bound Aβ complex from H1299 conditioned medium. Kind of data set: 6E10 capture ELISA of H1299 conditioned medium with exogenous IGFBP-3. It is filed as binding, human.
For data set [10], the system named is Aβ / amyloid oligomers and fibrils in A549 medium. Kind of data set: Dot blot of immunodepleted A549 medium. It is filed as cell-based, human. To be noted: A549 medium immunodepleted of the named component; for anti-A11 oligomer signal after immunodepletion: Figure 9C,F.
Data set [11] has as its system amyloid oligomers and fibrils in A549 medium. Kind of data set: Dot blot of A549 medium with exogenous IGFBP-3. It is filed as cell-based, human. To be noted: 400 nM vs 100 nM IGFBP-3, A549 medium.
Data set [12] relates to amyloid oligomers and fibrils in H1299 medium. Kind of data set: Dot blot of H1299 medium with exogenous IGFBP-3. It is filed as cell-based, human.
For data set [13], the system named is Aβ in A549 medium. Kind of data set: Aβ ELISA. It is filed as cell-based, human. To be noted: Figure 11A; A549 medium immunodepleted of the named component.
The subject of data set [14] is Aβ in H1299 medium. Kind of data set: Aβ ELISA. It is filed as cell-based, human. To be noted: Figure 11B; H1299 medium immunodepleted of the named component.
In data set [15] the test system is A549 cells. Kind of data set: MTT assay, A549 cells. It is filed as cell-based, human. To be noted: medium immunodepleted of the named component, 48 h. A general note: Tetrazolium dyes change colour on reduction, which living cells bring about.
In data set [16] the test system is H1299 cells. Kind of data set: MTT assay, H1299 cells. It is filed as cell-based, human. The conditions noted are these: medium immunodepleted of the named component, 48 h.
Data set [17] deals with A549 cells. Kind of data set: Apoptosis, annexin V ELISA, A549 cells. The conditions noted are these: medium immunodepleted of the named component, 48 h. It is filed as cell-based, human.
Data set [18] deals with H1299 cells. Kind of data set: Apoptosis, annexin V ELISA, H1299 cells. It is filed as cell-based, human. The conditions noted are these: medium immunodepleted of the named component, 48 h.
The subject of data set [19] is A549 human lung cancer cell. To be noted: residues 215–232 of IGFBP-3 bind hyaluronan, blocking CD44; cited from earlier work.
The target in data set [20] is biotin-humanin. Kind of data set: ELISA.
For data set [21], the target named is biotin-humanin. Kind of data set: ELISA. This is another data set of the same source.
In data set [22] the target is biotin-humanin. Kind of data set: ELISA. This is another data set of the same source.
Data set [23] has as its target Humanin (HN) peptide. Kind of data set: ELISA.
The target of data set [24] is biotin-humanin. Kind of data set: ELISA. This is another data set of the same source.
Data set [25] has as its system complex between HN and Aβ40. Kind of data set: ELISA, IGFBP-3 competition for the HN-Aβ40 complex. It is filed as binding. To be noted: AChE (100 nM), HN (100 nM).
The subject of data set [26] is complex between HN and Aβ42. Kind of data set: ELISA, IGFBP-3 competition for the HN-Aβ42 complex. It is filed as binding. To be noted: AChE (100 nM), HN (100 nM).
Data set [27] concerns Aβ from A549 conditioned medium bound to 6E10. Kind of data set: 6E10 capture ELISA of A549 conditioned medium with exogenous HN. It is filed as binding, human.
Data set [28] relates to Aβ from H1299 conditioned medium bound to 6E10. Kind of data set: 6E10 capture ELISA of H1299 conditioned medium with exogenous HN. It is filed as binding, human.
For data set [29], the system named is Aβ / amyloid oligomers and fibrils in H1299 medium. Kind of data set: Dot blot of immunodepleted H1299 medium. To be noted: Figure 9B,E; H1299 medium immunodepleted of the named component. It is filed as cell-based, human.
For data set [30], the system named is Aβ (12–28) and Aβ (1–16). To be noted: cited from earlier work.
The mark [31] stands for this setting: Figure 8A, added IGFBP-3, cell line not stated.
Where [32] appears, read: Figure 8A, cell line not stated.
Setting [33] is: Figure 8B, A549 medium, added IGFBP-3.

Turning to Aβ42 [reference compound], in data set [1] (Aβ42 2 μM, 335 min), the “aggregation kinetics compared to Aβ40 (ThT)” value is reported as “faster aggregation kinetics”.

For “HN (5–15) (GFSCLLLLTSE; Humanin; UniProt Q8IVG9 5-15, looked up, fragment)”, the “inhibition of Aβ40-HN interactions” value in data set [2] was “more effective inhibitor of Aβ40-HN interactions than Aβ (17–28)”.

For the molecule “HN (5–15, L11S) (GFSCLLSLTSE; Humanin; UniProt Q8IVG9 5-15, looked up, variant L11S)”, in [2], the “inhibition of Aβ40-HN interactions” value was “reduced the ability of HN (5–15) to compete with the Aβ40-HN interactions”.

For Humanin (HN) peptide, the fold increase of the HN signal at 400 nM added HN over no added HN in data set [3] stood at 2.5 fold. In [4], this molecule showed a fold decrease of AChE bound to Aβ with added HN of 1.5 fold and a fold increase of the HN signal at 400 nM added HN over no added HN of 2.5 fold.

With IGFBP-3, in [5] (2 μM IGFBP-3, HN and Aβ 0.2 μM), the HN-Aβ binding signal result is reported as “completely abolished the signal”. Besides, the “effect of 2 μM IGFBP-3 on HN block of Aβ40 aggregation (ThT)” value in [6] (Aβ40 2 μM, HN 2 μM, IGFBP-3 2 μM, 335 min, no AChE) is “reduced the ability of HN to block aggregation of Aβ, but only partially”. Moreover, the “effect of 6 μM IGFBP-3 on HN block of Aβ40 aggregation (ThT)” value in data set [6] (Aβ40 2 μM, HN 2 μM, IGFBP-3 6 μM, 335 min, no AChE) was “completely abolished the ability of HN to block the aggregation of Aβ”. In addition, the “Aβ40 aggregation with 6 μM IGFBP-3 in presence of AChE and HN (ThT)” value in data set [6] (Aβ40, AChE, HN each 2 μM, IGFBP-3 6 μM) is “aggregation kinetics comparable to those of Aβ incubated with only AChE”. Moreover, the “effect of 2 μM IGFBP-3 on HN block of Aβ42 aggregation (ThT)” value in data set [1] (Aβ42 2 μM, HN 2 μM, IGFBP-3 2 μM, 335 min, no AChE) was “reduced the ability of HN to block aggregation of Aβ, but only partially”. The “effect of 6 μM IGFBP-3 on HN block of Aβ42 aggregation (ThT)” value in data set [1] (Aβ42 2 μM, HN 2 μM, IGFBP-3 6 μM, 335 min, no AChE) is “completely abolished the ability of HN to block the aggregation of Aβ”. Moreover, the “Aβ42 aggregation with 6 μM IGFBP-3 in presence of AChE and HN (ThT)” value in [1] (Aβ42, AChE, HN each 2 μM, IGFBP-3 6 μM) is reported as “aggregation kinetics comparable to those of Aβ incubated with only AChE”. In addition, in data set [7], the “detection in complex with any of the antibodies tested (6E10, 4G8, A11, LOC)” value was “No IGFBP-3 was detected”. Further, the “IGFBP-3 detection in 6E10 complex after adding 400 nM IGFBP-3” value in data set [8] (A549 medium, Figure 8A-C) was “did not result in detection of IGFBP-3”; in data set [9] (Figure 8A-C), “did not result in detection of IGFBP-3”. Moreover, in data set [8] (setting [31]), the “A11 (amyloid oligomer) signal fold increase relative to control” value is ~ 3.9 fold. In addition, the “LOC (amyloid fibrils) signal fold increase relative to control” value in [8] (setting [31]) is ~ 1.7 fold. For the same molecule, the “HN in 6E10 complex upon addition of 50 nM IGFBP-3” value in data set [8] (setting [32]) was “diminished”. For the same molecule, the “HN in 6E10 complex upon addition of 100 nM IGFBP-3” value in data set [8] (setting [32]) is on record as “completely depleted”. Also, the “A11 signal fold increase relative to control without IGFBP-3” value in data set [8] (setting [33]) is ~ 3.9 fold. The “LOC signal fold increase relative to control with no IGFBP-3” value in data set [8] (setting [33]) is listed as ~ 1.59 fold. For the same molecule, the “LOC signal with added IGFBP-3” value in [9] (Figure 8C) was “no signal was observed”. Further, in data set [9] (Figure 8C, added IGFBP-3), the “A11 signal fold increase relative to control with no IGFBP-3” value was ~ 2.5 fold. Further, the “anti-A11 oligomer signal after immunodepletion” value in [10] is “No difference”. Moreover, the “further effect of 400 nM IGFBP-3 on A11/LOC signals” value in data set [11] is on record as “did not have any further effect”; in data set [12] (400 nM vs 100 nM IGFBP-3, H1299 medium), “did not have any further effect”. In [12] (100 nM IGFBP-3 added, H1299 medium (no increase)), the “anti-LOC signal, cell media in which increase was observed” value is given as “only in the A549 medium”. Moreover, the “effect of immunodepletion on total Aβ or oligomer” value in data set [13] and in data set [14] was “No effects” in each case. The “cell viability after treatment with immunodepleted medium” value in data set [15] was “increased the A549 cell viability”; in data set [16], “no effect”. Also, the results for the “apoptosis after treatment with immunodepleted medium” value in data set [17] and in [18] were “reduced apoptosis” and “no effect”, respectively. Also, the A549 cell viability result in data set [19] is on record as “reducing A549 human lung cancer cell viability”.

Consider “Recombinant human insulin-like growth factor binding protein-3 (IGFBP-3) (from UniProt P17936 28-291) (natural protein)”, for which the IC50 was found to be 58 nM in data set [20], 74 nM in data set [21], 39 nM in [22] and 93 nM in data set [24]. The molecule further showed a percent decrease of the biotinylated Aβ signal on HN at 0.2 μM IGFBP-3 in data set [23] of 50%.

B1: AChE (protein)
chain: EGREDAELLVTVRGGRLRGIRLKTPGGPVSAFLGIPFAEPPMGPRRFLPPEPKQPWSGVVDATTFQSVCYQYVDTLYPGFEGTEMWNPNRELSEDCLYLNVWTPYPRPTSPTPVLVWIYGGGFYSGASSLDVYDGRFLVQAERTVLVSMNYRVGAFGFLALPGSREAPGNVGLLDQRLALQWVQENVAAFGGDPTSVTLFGESAGAASVGMHLLSPPSRGLFHRAVLQSGAPNGPWATVGMGEARRRATQLAHLVGCPPGGTGGNDTELVACLRTRPAQVLVNHEWHVLPQESVFRFSFVPVVDGDFLSDTPEALINAGDFHGLQVLVGVVKDEGSYFLVYGAPGFSKDNESLISRAEFLAGVRVGVPQVSDLAAEAVVLHYTDWLHPEDPARLREALSDVVGDHNVVCPVAQLAGRLAAQGARVYAYVFEHRASTLSWPLWMGVPHGYEIEFIFGIPLDPSRNYTAEEKIFAQRLMRYWANFARTGDPNEPRDPKAPQWPPYTAGAQQYVSLDLRPLEVRRGLRAQACAFWNRFLPKLLSATDTLDEAERQWKAEFHRWSSYMVHWKNQFDHYSKQDRCSDL
On to B1, for which the “effect of added AChE on IGFBP-3 competition with Aβ40 for HN” value in data set [25] is listed as “no difference”. The “effect of added AChE on IGFBP-3 competition with Aβ42 for HN” value in [26] is “no difference”. The “change in signal with increasing AChE in presence of IGFBP-3” value in data set [5] (0.2 or 2 μM IGFBP-3 present) was “no change in the signal”. In addition, the “aggregation of Aβ40 with AChE (ThT)” value in data set [6] (Aβ40 2 μM, AChE 2 μM, 335 min) is “increased aggregation with changes in both the lag phase and the final ThT fluorescence value”. Further, the “aggregation of Aβ42 with AChE (ThT)” value in data set [1] (Aβ42 2 μM, AChE 2 μM, 335 min) was “increased aggregation with changes in both the lag phase and the final ThT fluorescence value”. Besides, the results for the “AChE bound to Aβ (6E10 capture)” value in data set [27] and in data set [28] were “detectable levels” and “Barely detectable levels”, respectively. Besides, the “Aβ detected with anti-6E10 after immunodepletion” value is given as “decreased the amount of Aβ” in [10] (Figure 9B,E) and “no change” in [29]. Also, the “anti-A11 oligomer signal after immunodepletion” value in [10] was “No difference”. The “effect of immunodepletion on total Aβ or oligomer” value in [14] is “No change”. Moreover, the “cell viability after treatment with immunodepleted medium” value in data set [15] is reported as “increased the A549 cell viability”; in [16], “no effect”. Moreover, the “apoptosis after treatment with immunodepleted medium” value was “reduced apoptosis” in data set [17] and “no effect” in [18]. Also, the “binding to Aβ fragments” value in [30] was “binds to Aβ (12–28) and the Aβ (1–16) peptide”.

What is called IC50 is the concentration that inhibits the measured activity by half.
